Source: ChEMBL document CHEMBL1147298, “An antitumor principle from Suillus granulatus” (1989)
In brackets after ≈: the same amount, converted by molar mass.

What was measured:
Format in all cases: functional
KB = assay: Cytotoxicity against human KB cells; settings: read-out: ID50 (the source's name)
P388 [1] = assay: Cytotoxicity against mouse P388 cells; settings: read-out: ID50 (the source's name)
P388 [2] = assay: In vivo antitumor activity against mouse P388 cells at 10 mg/kg, ip administered on 1,5 and 9 days relative to control; settings: route intraperitoneal
[3] = Cytotoxicity against human NSCLC-N6 cells; settings: read-out: ID50 (the source's name)
P388 [4] = assay: In vivo antitumor activity against mouse P388 cells at 5 mg/kg, ip administered on 1,5 and 9 days relative to control; settings: route intraperitoneal

CC(=O)Oc1ccc(OC(C)=O)c(OC(C)=O)c1C/C=C(\C)CC/C=C(\C)CC/C=C(\C)CCC=C(C)C
IC50 (KB): 1.8 µg/mL (≈ 3.43 µM)

CC(=O)Oc1ccc(O)c(O)c1C/C=C(\C)CC/C=C(\C)CC/C=C(\C)CCC=C(C)C [TETRAPRENYLPHENOLSUILLIN]
IC50 (P388 [1]): 0.85 µg/mL (≈ 1.93 µM) | T/C (P388 [2]): 160% | IC50 (KB): 0.69 µg/mL (≈ 1.57 µM) | IC50 [3]: 1.02 µg/mL (≈ 2.31 µM) | T/C (P388 [4]): 151%
